Reference: patent publication US5141865A, “Monoclonal antibodies which bind thromboxane A2 receptor antagonists and diagnostic methods based thereon” (priority 1989, dated 1992)

System: monoclonal antibody MCTX1
Assay: Competitive radioimmunoassay (RIA) with MCTX1 and radiolabel-1; standard curve and cross-reactivity
Type: binding, mouse
Conditions: for percent cross-reactivity with MCTX1: ED50 of cross-reactant relative to ED50 of Compound I x 100, standards and cross-reactants in PBS
Description: Sera from immunized mice and media collected from wells containing HAT selected hybridomas were tested for the presence of antibodies recognizing Compound I by RIA. Undiluted media (50 μl) was incubated overnight at 4° C. with PBS (50 μl), normal human sera (50 μl) and [^125 I]-iodohistamine - Compound I (radiolabel-1) in PBS (200 μl, 50,000 CPM). After incubation, 1.0 ml of PEG 8000 (Fisher Scientific, Fairlawn, N.J.) (25% wt/vol) was added as separant; samples were centrigued at room temperature at 2000×g for 10 to 15 minutes and the supernatant decanted. Radioactivity associated with the precipitate was then determined using an APEX automatic gamma counter (ICN Micromedic Systems). Satisfactory zero binding and sensitivity were obtained after an overnight incubation at 4° C.
In order to assay samples for thromboxane A2 receptor antagonist, the same procedure was used, except that 50 μl of sample was used in place of the 50 μl of PBS.
In this regard, for construction of the standard curve and determination of cross-reactivity, standards and cross-reactants were prepared in PBS. Three cross-reactants were examined: the dinor and tetranor, possible metabolites of Compound I, and a related compound, Compound II, which lacks most of the omega side chain (Table 2).
To further characterize the specific structural features (epitope) within Compound I that are recognized by MCTX1, various derivatives of Compound I were tested for their cross-reactivity. The percent cross-reactivity was determined by dividing the ED50 of Compound I into the ED50 of the cross-reactants and multiplying the result by 100. […] Two potential metabolites of Compound I, the dinor and tetranor derivatives, had cross-reactivities of 66% and 17.6%, respectively. Both of these compounds have shortened alpha-side chains and no modifications in their omega-side chain. The extent of cross-reactivityof both alpha-side chain metabolites became less as the alpha-side chain became more truncated. […]

Structure (SMILES) | recognition by MCTX1 (cross-reactivity test) (cross-reactant prepared in PBS) | percent cross-reactivity with MCTX1
COC(=O)CCC=CCC1C2CCC(O2)C1CN (stereo not drawn) [Compound II] | not recognized by MCTX1 | –
CCCCCCC(=O)NCC(=O)NCC1C2CCC(O2)C1CC=CCC(=O)O (stereo not drawn) [dinor] | – | 66%
CCCCCCC(=O)NCC(=O)NC[C@H]1[C@@H](CCC(=O)O)[C@@H]2CC[C@H]1O2 [tetranor] | – | 17.6%
